# Assay results reported in publication PMC6199744, “Development of Chemical Proteomics for the Folateome and Analysis of the Kinetoplastid Folateome” (ACS Infectious Diseases, 2018).
# Values joined by “and” are separate entries in the source; they are usually repeats but may differ in a detail not shown here. Equal values may be shown once. Read-outs that look alike come from different tables or passages of the source.
# System: T. brucei lysate proteins
# Type: binding, Trypanosoma brucei
structure (smiles),measurement,setting,value
"Nc1nc2c(c(=O)[nH]1)N(C=O)C(CNc1ccc(C(=O)N[C@@H](CCC(=O)O)C(=O)O)cc1)CN2 (stereo partly drawn) [LEU, leucovorin]",fold change vs vehicle control,,0.89 and 1.1 and 1.13
same,fold change,"protein CZB00000046.1 HA-UBIQUITIN, vehicle control = 1",0.69
same,fold change,"protein CZT00008884.1 […]-ASSOCIATED GENE 3 (ESAG3) PROTEIN, vehicle control = 1",1.21
same,fold change,"protein CZT00018965.1 RETRO[…] (RHS) PROTEIN 1, vehicle control = 1",1.3
same,fold change vs vehicle control,"protein TB09.160.3270 ATP-DEPENDENT DEAD BOX HELICASE, PUTATIVE, vehicle control = 1",1.53
same,fold change,"protein TB09.160.3710 PRO[…] NUCLEAR ANTIGEN (PCNA), PUTATIVE, vehicle control = 1",1
same,fold change vs vehicle control,"protein TB09.160.4200 60S ACIDIC RIBOSOMAL PROTEIN, PUTATIVE, vehicle control = 1",1.11
same,fold change vs vehicle control,"protein TB09.160.4250 TR[…], vehicle control = 1",1.26
same,fold change,"protein TB09.211.3540 GLYCEROL KINASE, GLYCOSOMAL, vehicle control = 1",1.39
same,fold change,"protein TB11.01.0450 PROTEIN PHOSPHATASE 1, PUTATIVE, vehicle control = 1",0.92
same,fold change,"protein TB11.01.1690 HY[…], CONSERVED, vehicle control = 1",1.4
same,fold change vs vehicle control,"protein TB11.01.2560 40S RIBOSOMAL PROTEIN SA, PUTATIVE, vehicle control = 1",0.87
same,fold change,"protein TB11.01.3560 VACUOLAR ATP SYNTHASE SUBUNIT B, PUTATIVE, vehicle control = 1",0.9
same,fold change vs vehicle control,"protein TB11.01.4370 HY[…], CONSERVED, vehicle control = 1",1.1
same,fold change,"protein TB11.01.5350 PROFILIN, vehicle control = 1",1.27
same,fold change,"protein TB11.01.8740 PROTEIN PHOSPHATASE 4, PUTATIVE, vehicle control = 1",0.73
same,fold change vs vehicle control,"protein TB11.02.1135 DYNEIN LIGHT CHAIN, PUTATIVE, vehicle control = 1",1.39
same,fold change vs vehicle control,"protein TB11.02.2040 HY[…], CONSERVED (ALBA-Domain Protein), vehicle control = 1",1.42
same,fold change vs vehicle control,"protein TB11.02.2510 GUANINE NUCLEOTIDE-BINDING BETA SUBUNIT-LIKE PROTEIN, vehicle control = 1",0.98
same,fold change,"protein TB11.02.2960 MIT[…] PROTEIN, PUTATIVE, vehicle control = 1",0.69
same,fold change vs vehicle control,"protein TB11.02.4170 40S RIBOSOMAL PROTEIN S5, PUTATIVE, vehicle control = 1",1.44
same,fold change vs vehicle control,"protein TB11.03.0250 C[…], vehicle control = 1",1.92
same,fold change vs vehicle control,"protein TB11.03.0530 HY[…], CONSERVED (hy[…] SCD6.10), vehicle control = 1",0.99
same,fold change vs vehicle control,"protein TB427TMP.01.0480 HY[…], CONSERVED, vehicle control = 1",1.07
same,fold change,"protein TB427TMP.01.1470 60S RIBOSOMAL PROTEIN L10A, PUTATIVE, vehicle control = 1",0.96
same,fold change vs vehicle control,"protein TB427TMP.01.1680 POLYUBIQUITIN, PUTATIVE, vehicle control = 1",1.44
same,fold change,"protein TB427TMP.01.2460 HY[…], CONSERVED, vehicle control = 1",0.97
same,fold change vs vehicle control,"protein TB427TMP.01.3370 […] PROTEIN, PUTATIVE, vehicle control = 1",1.11
same,fold change vs vehicle control,"protein TB427TMP.01.4280 HY[…], CONSERVED, vehicle control = 1",1.18
same,fold change,"protein TB427TMP.01.4650 HY[…], CONSERVED, vehicle control = 1",0.86
same,fold change vs vehicle control,"protein TB427TMP.01.5680 HY[…], CONSERVED, vehicle control = 1",1.44
same,fold change vs vehicle control,"protein TB427TMP.01.5690 DRBD4, vehicle control = 1",0.99
same,fold change,"protein TB427TMP.01.5960 MIT[…] PROTEIN, PUTATIVE, vehicle control = 1",0.85
same,fold change,"protein TB427TMP.01.6180 HY[…], CONSERVED, vehicle control = 1",0.75
same,fold change vs vehicle control,"protein TB427TMP.01.6890 SMALL GTPASE, PUTATIVE, vehicle control = 1",2.02
same,fold change,"protein TB427TMP.01.7490 HY[…], CONSERVED, vehicle control = 1",0.86
same,fold change vs vehicle control,"protein TB427TMP.01.7530 HY[…], CONSERVED, vehicle control = 1",1.1
same,fold change,"protein TB427TMP.01.8390 HY[…], CONSERVED, vehicle control = 1",0.84
same,fold change,"protein TB427TMP.01.8570 DYNEIN LIGHT IN[…] D1BLIC, PUTATIVE, vehicle control = 1",0.9
same,fold change,"protein TB427TMP.02.0030 DYNEIN HEAVY CHAIN, PUTATIVE, vehicle control = 1",0.83
same,fold change,"protein TB427TMP.02.0460 NUCLEOPORIN, vehicle control = 1",0.84
same,fold change,"protein TB427TMP.02.0760 DYNEIN HEAVY CHAIN, PUTATIVE, vehicle control = 1",0.55
same,fold change,"protein TB427TMP.02.4100 PRETRA[…], ALPHA SUBUNIT, PUTATIVE, vehicle control = 1",1.41
same,fold change vs vehicle control,"protein TB427TMP.02.4300 HY[…], CONSERVED, vehicle control = 1",1.07
same,fold change,"protein TB427TMP.02.4550 HY[…], CONSERVED, vehicle control = 1",0.97
same,fold change,"protein TB427TMP.02.5660 HY[…], CONSERVED, vehicle control = 1",0.76
same,fold change vs vehicle control,"protein TB427TMP.02.5720 RIBONUCLEOSIDE-DIPHOSPHATE REDUCTASE LARGE CHAIN, vehicle control = 1",0.95
same,fold change,"protein TB427TMP.03.0150 HY[…], CONSERVED, vehicle control = 1",0.88
same,fold change,"protein TB427TMP.160.2370 HY[…], CONSERVED, vehicle control = 1",0.95
same,fold change,"protein TB427TMP.160.4310 GLUTAMATE DEHYDROGENASE, vehicle control = 1",0.99
same,fold change vs vehicle control,"protein TB427TMP.160.4560 ARGININE KINASE, vehicle control = 1",2.29
same,fold change vs vehicle control,"protein TB427TMP.160.4620 INOSITOL-1(OR 4)-MONOPHOSPHATASE, PUTATIVE, vehicle control = 1",1.07
same,fold change vs vehicle control,"protein TB427TMP.160.4630 HY[…], CONSERVED, vehicle control = 1",1
same,fold change,"protein TB427TMP.160.4770 PROTEIN KINASE, PUTATIVE, vehicle control = 1",0.91
same,fold change,"protein TB427TMP.160.4910 FLAVOPROTEIN MONOOXYGENASE, PUTATIVE, vehicle control = 1",0.97
same,fold change,"protein TB427TMP.160.5670 HY[…], CONSERVED, vehicle control = 1",0.81
same,fold change,"protein TB427TMP.211.2730 GIM5A PROTEIN, vehicle control = 1",1.23
same,fold change vs vehicle control,"protein TB427TMP.211.3140 HY[…], CONSERVED, vehicle control = 1",1.57
same,fold change vs vehicle control,"protein TB427TMP.211.3510 ATP-DEPENDENT DEAD/H RNA HELICASE, PUTATIVE, vehicle control = 1",0.96
same,fold change vs vehicle control,"protein TB427TMP.22.0003 PHOSPH[…], PUTATIVE, vehicle control = 1",0.99
same,fold change,"protein TB427TMP.46.0001 60S ACIDIC RIBOSOMAL SUBUNIT PROTEIN, PUTATIVE, vehicle control = 1",0.96
same,fold change,"protein TB427TMP.47.0011 HY[…], CONSERVED, vehicle control = 1",0.89
same,fold change vs vehicle control,"protein TB427TMP.55.0006 INTR[…] PROTEIN IFT88, vehicle control = 1",1.07
same,fold change vs vehicle control,"protein TB427TMP.57.0008 CALPAIN-LIKE PROTEIN, PUTATIVE, vehicle control = 1",0.86
same,fold change vs vehicle control,"protein TB427.01.120 RETRO[…] SPOT (RHS) PROTEIN, PUTATIVE, vehicle control = 1",0.97
same,fold change,"protein TB427.01.2570 COATOMER BETA SUBUNIT, vehicle control = 1",0.97
same,fold change,"protein TB427.01.420 RETRO[…] SPOT (RHS) PROTEIN, PUTATIVE, vehicle control = 1",1.1
same,fold change vs vehicle control,"protein TB427.02.3880 HET[…] RIBONUC[…]/F, PUTATIVE, vehicle control = 1",1.3
same,fold change vs vehicle control,"protein TB427.02.5800 SEDOHEPTULOSE-1,7-BISPHOSPHATASE, vehicle control = 1",1.36
same,fold change vs vehicle control,"protein TB427.02.6050 BETA PRIME COP PROTEIN, vehicle control = 1",1.34
same,fold change,"protein TB427.03.1790 PYRUVATE DEHYDROGENASE E1 BETA SUBUNIT, PUTATIVE, vehicle control = 1",0.98
same,fold change vs vehicle control,"protein TB427.03.3160 POLY(A) POLYMERASE, vehicle control = 1",1.23
same,fold change vs vehicle control,"protein TB427.03.3950 HY[…], CONSERVED, vehicle control = 1",0.86
same,fold change vs vehicle control,"protein TB427.03.4040 HY[…], CONSERVED (Ankyrinrepeat), vehicle control = 1",3.1
same,fold change,"protein TB427.04.1300 HY[…], CONSERVED, vehicle control = 1",1.3
same,fold change vs vehicle control,"protein TB427.04.1510 PHOSPHOLIPID-TRA[…], PUTATIVE, vehicle control = 1",0.95
same,fold change vs vehicle control,"protein TB427.04.1660 MIT[…] PROTEIN, PUTATIVE, vehicle control = 1",1
same,fold change,"protein TB427.04.310 HY[…], CONSERVED, vehicle control = 1",0.93
same,fold change,"protein TB427.04.420 PHOSPHATIDYLINOSITOL 3-KINASE (TOR2), vehicle control = 1",0.74
same,fold change,"protein TB427.04.450 COATOMER ALPHA SUBUNIT, PUTATIVE, vehicle control = 1",1.1
same,fold change,"protein TB427.04.5010 CALRETICULIN, PUTATIVE, vehicle control = 1",2.06
same,fold change,"protein TB427.04.5200 NUCLEOPORIN (NUP54/57), PUTATIVE, vehicle control = 1",0.9
same,fold change,"protein TB427.05.1210 SHORT-CHAIN DEHYDROGENASE, PUTATIVE, vehicle control = 1",1.33
same,fold change vs vehicle control,"protein TB427.05.1320 HY[…], CONSERVED, vehicle control = 1",1.07
same,fold change vs vehicle control,"protein TB427.05.1700 R[…] A 28 KDA SUBUNIT, PUTATIVE, vehicle control = 1",1.31
same,fold change vs vehicle control,"protein TB427.05.3260 HY[…], CONSERVED, vehicle control = 1",0.99
same,fold change,"protein TB427.05.3400 CALCIUM-TRA[…]-TYPE ATPASE, vehicle control = 1",1.28
same,fold change vs vehicle control,"protein TB427.05.4560 GUANINE DEAMINASE, PUTATIVE, vehicle control = 1",0.95
same,fold change vs vehicle control,"protein TB427.06.1500 ALKYL-DIHYDR[…] SYNTHASE, vehicle control = 1",0.97
same,fold change,"protein TB427.06.3500 ENDOSOMAL T[…] RME-8, PUTATIVE, vehicle control = 1",0.71
